Experiments:
Settings in all cases: 1 µM; inhibitor
[1] = biological target: TRKB (Homo sapiens, UniProt Q16620)
[2] = biological target: ABL2 (Homo sapiens, UniProt P42684)
[3] = biological target: GRK3 (Homo sapiens, UniProt P35626)
[4] = biological target: SNARK (Homo sapiens, UniProt Q9H093)
[5] = biological target: CK2a2 (Homo sapiens, UniProt P19784)
[6] = biological target: NEK7 (Homo sapiens, UniProt Q8TDX7)
[7] = biological target: CK1g1 (Homo sapiens, UniProt Q9HCP0)
[8] = biological target: HIPK1 (Homo sapiens, UniProt Q86Z02)
[9] = biological target: MTOR (Homo sapiens, UniProt P42345)
[10] = biological target: STK39 (Homo sapiens, UniProt Q9UEW8)
[11] = biological target: TSK2 (Homo sapiens, UniProt Q96PF2)
[12] = biological target: TAOK2 (Homo sapiens, UniProt Q9UL54)
[13] = biological target: PKMzeta (Homo sapiens, UniProt Q05513)
[14] = biological target: WNK2 (Homo sapiens, UniProt Q9Y3S1)
[15] = biological target: PKCt (Homo sapiens, UniProt Q04759)
Sequence of PKCt (Q04759 whole entry): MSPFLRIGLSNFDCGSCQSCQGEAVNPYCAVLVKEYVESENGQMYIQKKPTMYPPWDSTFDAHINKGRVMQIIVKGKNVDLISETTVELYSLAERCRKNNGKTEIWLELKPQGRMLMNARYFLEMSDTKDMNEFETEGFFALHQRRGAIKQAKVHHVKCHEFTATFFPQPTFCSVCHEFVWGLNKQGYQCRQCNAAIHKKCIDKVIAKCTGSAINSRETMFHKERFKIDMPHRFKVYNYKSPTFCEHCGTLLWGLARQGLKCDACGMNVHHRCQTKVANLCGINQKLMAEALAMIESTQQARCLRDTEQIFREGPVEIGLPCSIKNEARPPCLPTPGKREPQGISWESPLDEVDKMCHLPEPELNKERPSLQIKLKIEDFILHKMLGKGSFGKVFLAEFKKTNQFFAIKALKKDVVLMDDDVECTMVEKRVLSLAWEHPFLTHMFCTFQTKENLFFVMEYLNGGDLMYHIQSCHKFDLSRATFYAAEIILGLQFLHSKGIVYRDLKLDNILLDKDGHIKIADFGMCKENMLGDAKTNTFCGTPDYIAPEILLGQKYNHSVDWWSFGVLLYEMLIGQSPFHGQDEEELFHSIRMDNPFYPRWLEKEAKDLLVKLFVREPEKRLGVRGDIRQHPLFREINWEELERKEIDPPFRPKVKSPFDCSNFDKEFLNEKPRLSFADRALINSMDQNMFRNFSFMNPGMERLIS

[16] = biological target: RPS6KA6 (Homo sapiens, UniProt Q9UK32)
[17] = biological target: ERK1 (Homo sapiens, UniProt P27361)
[18] = biological target: MET (Homo sapiens, UniProt P08581)
Sequence of MET (P08581 whole entry): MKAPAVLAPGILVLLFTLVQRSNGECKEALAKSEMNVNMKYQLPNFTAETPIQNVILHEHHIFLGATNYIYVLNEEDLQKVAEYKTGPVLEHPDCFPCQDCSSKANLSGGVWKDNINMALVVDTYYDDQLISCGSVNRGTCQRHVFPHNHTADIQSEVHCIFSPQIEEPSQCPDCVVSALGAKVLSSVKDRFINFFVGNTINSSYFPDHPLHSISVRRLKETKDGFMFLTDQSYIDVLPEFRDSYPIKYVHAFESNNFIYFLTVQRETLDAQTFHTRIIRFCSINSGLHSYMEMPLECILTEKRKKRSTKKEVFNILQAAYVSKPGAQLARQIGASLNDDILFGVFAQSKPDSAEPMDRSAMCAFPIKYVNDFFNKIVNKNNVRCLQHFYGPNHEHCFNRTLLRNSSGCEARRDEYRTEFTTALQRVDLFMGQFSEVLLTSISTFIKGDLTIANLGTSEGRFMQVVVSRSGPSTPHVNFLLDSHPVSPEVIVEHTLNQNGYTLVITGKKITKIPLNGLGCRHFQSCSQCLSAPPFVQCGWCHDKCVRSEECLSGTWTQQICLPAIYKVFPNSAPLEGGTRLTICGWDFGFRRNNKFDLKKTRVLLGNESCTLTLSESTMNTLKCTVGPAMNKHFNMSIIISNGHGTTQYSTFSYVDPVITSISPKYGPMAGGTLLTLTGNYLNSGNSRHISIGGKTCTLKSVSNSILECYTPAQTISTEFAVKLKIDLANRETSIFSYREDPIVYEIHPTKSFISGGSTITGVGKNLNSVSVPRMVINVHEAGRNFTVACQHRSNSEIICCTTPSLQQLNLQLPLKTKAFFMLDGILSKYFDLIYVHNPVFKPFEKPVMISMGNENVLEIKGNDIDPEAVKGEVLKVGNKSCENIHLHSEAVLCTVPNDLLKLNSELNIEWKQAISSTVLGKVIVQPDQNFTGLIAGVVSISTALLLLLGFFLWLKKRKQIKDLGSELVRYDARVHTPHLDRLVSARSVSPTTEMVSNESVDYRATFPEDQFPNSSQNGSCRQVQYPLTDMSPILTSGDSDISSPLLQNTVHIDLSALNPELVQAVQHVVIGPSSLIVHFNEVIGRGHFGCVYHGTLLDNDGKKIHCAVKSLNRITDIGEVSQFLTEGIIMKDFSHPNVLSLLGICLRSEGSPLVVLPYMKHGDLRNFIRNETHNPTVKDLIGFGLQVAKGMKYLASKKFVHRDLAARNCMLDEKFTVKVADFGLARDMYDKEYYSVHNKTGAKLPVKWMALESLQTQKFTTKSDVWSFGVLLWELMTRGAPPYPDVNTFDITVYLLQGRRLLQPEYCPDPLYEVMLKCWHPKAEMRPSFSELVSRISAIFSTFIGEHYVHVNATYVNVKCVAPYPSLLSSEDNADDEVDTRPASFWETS

[19] = biological target: PAK4 (Homo sapiens, UniProt O96013)
[20] = biological target: ERBB4 (Homo sapiens, UniProt Q15303)
[21] = biological target: MARK3 (Homo sapiens, UniProt P27448)
[22] = biological target: VEGFR1 (Homo sapiens, UniProt P17948)
[23] = biological target: PKCmu (Homo sapiens, UniProt Q15139)
[24] = biological target: FLT4 (Homo sapiens, UniProt P35916)
[25] = biological target: CDK20/CycT1 (Homo sapiens, UniProt Q8IZL9)
Sequence of CDK20/CycT1 (Q8IZL9 whole entry): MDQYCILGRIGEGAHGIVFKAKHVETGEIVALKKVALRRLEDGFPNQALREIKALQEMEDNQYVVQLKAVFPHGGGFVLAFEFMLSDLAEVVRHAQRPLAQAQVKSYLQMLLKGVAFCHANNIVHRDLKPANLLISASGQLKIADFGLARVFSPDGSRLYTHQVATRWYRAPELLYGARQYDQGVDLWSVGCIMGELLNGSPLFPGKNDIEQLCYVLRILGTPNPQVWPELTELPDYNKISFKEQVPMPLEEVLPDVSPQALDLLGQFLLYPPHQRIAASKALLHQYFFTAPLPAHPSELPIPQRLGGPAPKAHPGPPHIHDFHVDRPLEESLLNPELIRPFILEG
Sequence of CDK20/CycT1 (O60563 whole entry partner): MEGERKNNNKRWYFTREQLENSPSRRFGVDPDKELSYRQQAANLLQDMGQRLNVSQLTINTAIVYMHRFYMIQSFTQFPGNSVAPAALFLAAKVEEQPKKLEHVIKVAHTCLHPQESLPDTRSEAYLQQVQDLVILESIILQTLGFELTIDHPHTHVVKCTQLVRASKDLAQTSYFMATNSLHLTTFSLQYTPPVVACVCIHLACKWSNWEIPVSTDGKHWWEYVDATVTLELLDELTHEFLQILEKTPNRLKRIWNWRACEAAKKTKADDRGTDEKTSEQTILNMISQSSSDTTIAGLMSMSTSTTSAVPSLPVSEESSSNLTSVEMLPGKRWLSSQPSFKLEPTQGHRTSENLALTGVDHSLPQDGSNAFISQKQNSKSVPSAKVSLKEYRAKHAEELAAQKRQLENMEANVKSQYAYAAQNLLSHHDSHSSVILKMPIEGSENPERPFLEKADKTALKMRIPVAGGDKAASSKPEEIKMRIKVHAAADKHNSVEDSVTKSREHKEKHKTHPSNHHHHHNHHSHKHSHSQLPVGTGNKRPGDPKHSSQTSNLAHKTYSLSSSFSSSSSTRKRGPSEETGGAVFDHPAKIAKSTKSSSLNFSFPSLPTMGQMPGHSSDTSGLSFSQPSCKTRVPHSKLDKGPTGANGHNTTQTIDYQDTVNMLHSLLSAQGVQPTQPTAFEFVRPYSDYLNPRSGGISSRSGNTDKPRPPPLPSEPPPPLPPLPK

[26] = biological target: CHK1 (Homo sapiens, UniProt O14757)
[27] = biological target: GSK3B (Homo sapiens, UniProt P49841)
[28] = biological target: BUB1B (Homo sapiens, UniProt O60566)
[29] = biological target: PRK1 (Homo sapiens, UniProt Q16512)
[30] = biological target: CDK6/CycD2 (Homo sapiens, UniProt Q00534)
[31] = biological target: LCK (Homo sapiens, UniProt P06239)

Sequence of SNARK (Q9H093 whole entry): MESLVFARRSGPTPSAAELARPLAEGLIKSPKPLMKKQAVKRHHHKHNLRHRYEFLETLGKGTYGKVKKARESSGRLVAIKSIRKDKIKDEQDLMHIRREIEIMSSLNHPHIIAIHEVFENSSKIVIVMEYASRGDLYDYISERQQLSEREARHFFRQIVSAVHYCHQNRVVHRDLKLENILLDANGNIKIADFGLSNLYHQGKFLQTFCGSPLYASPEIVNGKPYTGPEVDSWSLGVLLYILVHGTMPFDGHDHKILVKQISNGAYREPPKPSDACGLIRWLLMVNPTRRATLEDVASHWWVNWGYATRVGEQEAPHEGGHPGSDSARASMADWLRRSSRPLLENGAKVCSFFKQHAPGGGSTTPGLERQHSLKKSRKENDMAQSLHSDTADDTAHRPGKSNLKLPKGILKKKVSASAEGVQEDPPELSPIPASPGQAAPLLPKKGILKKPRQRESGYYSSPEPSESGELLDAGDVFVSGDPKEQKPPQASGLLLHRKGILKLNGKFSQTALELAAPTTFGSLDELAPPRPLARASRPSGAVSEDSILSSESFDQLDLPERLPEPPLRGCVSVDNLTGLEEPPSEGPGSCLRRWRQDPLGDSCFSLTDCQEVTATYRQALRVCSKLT
Sequence of GRK3 (P35626 whole entry): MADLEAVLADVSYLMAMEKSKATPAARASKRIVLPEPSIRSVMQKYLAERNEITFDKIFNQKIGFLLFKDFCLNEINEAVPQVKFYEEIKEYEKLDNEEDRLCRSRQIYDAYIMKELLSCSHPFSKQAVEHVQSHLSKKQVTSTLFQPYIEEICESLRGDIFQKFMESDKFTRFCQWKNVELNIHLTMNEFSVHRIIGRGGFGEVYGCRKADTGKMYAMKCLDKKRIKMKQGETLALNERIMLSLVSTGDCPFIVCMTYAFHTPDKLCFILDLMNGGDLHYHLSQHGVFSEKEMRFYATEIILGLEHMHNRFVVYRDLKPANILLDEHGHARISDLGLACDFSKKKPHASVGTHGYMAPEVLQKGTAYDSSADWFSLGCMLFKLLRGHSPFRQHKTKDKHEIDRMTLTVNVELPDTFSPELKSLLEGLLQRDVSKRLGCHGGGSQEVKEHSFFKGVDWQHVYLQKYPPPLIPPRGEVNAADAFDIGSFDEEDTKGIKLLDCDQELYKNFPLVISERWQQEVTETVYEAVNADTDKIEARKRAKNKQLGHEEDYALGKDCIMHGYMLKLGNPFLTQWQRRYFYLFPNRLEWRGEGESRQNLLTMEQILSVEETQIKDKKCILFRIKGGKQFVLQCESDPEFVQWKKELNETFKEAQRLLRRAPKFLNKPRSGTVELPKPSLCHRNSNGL
Sequence of NEK7 (Q8TDX7 whole entry): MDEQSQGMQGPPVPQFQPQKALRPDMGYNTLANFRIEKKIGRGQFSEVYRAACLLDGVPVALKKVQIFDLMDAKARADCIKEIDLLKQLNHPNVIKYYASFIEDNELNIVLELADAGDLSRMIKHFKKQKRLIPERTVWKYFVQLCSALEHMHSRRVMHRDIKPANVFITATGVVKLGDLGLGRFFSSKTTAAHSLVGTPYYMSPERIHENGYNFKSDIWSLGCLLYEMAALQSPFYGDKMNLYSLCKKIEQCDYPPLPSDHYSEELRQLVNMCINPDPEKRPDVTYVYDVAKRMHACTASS

O=C1NCCCCCNc2nc(c3ccccc3n2)Nc2cc1[nH]n2 [21c, (Z)-3^1H-2,5,11-triaza-1(4,2)-quinazolina-3(3,5)-pyrazolacycloundecaphan-4-one] was tested, and the “21c Remaining activity, percent of control [%]” value [1] was 79.0%, the “21c Remaining activity, percent of control [%]” value [2] was 84.2% and the “21c Remaining activity, percent of control [%]” value [3] was 97.4%. For the same molecule, the “21c Remaining activity, percent of control [%]” value [4] was 95.6%, the “21c Remaining activity, percent of control [%]” value [5] was 85.6% and the “21c Remaining activity, percent of control [%]” value [6] was 98.8%. For the same molecule, the “21c Remaining activity, percent of control [%]” value [7] was 102.2%, the “21c Remaining activity, percent of control [%]” value [8] was 97.2% and the “21c Remaining activity, percent of control [%]” value [9] was 99.2%. For the same molecule, the “21c Remaining activity, percent of control [%]” value [10] was 49.5%, the “21c Remaining activity, percent of control [%]” value [11] was 93.8% and the “21c Remaining activity, percent of control [%]” value [12] was 93.6%. The “21c Remaining activity, percent of control [%]” value [13] was 96.2%, the “21c Remaining activity, percent of control [%]” value [14] was 94.8% and the “21c Remaining activity, percent of control [%]” value [15] was 42.6%. The “21c Remaining activity, percent of control [%]” value [16] was 73.5%, the “21c Remaining activity, percent of control [%]” value [17] was 85.8% and the “21c Remaining activity, percent of control [%]” value [18] was 107.2%. The “21c Remaining activity, percent of control [%]” value [19] was 95.1%, the “21c Remaining activity, percent of control [%]” value [20] was 90.7% and the “21c Remaining activity, percent of control [%]” value [21] was 101.1%. The “21c Remaining activity, percent of control [%]” value [22] was 100.3%, the “21c Remaining activity, percent of control [%]” value [23] was 96.1% and the “21c Remaining activity, percent of control [%]” value [24] was 93.9%. The “21c Remaining activity, percent of control [%]” value [25] was 89.1%, the “21c Remaining activity, percent of control [%]” value [26] was 112.0% and the “21c Remaining activity, percent of control [%]” value [27] was 81.4%. For the same molecule, the “21c Remaining activity, percent of control [%]” value [28] was 101.6%, the “21c Remaining activity, percent of control [%]” value [29] was 91.8% and the “21c Remaining activity, percent of control [%]” value [30] was 85.8%. For the same molecule, the “21c Remaining activity, percent of control [%]” value [31] was 92.0%.
